Test results: patent publication US20230021562A1, “[…] D[…]-1 INHIBITORS” (priority 2019, published 2023)
Values joined by “and” are separate entries in the source; they are usually repeats but may differ in a detail not shown here. Identical values can stand only once. Like-named read-outs stand apart in the source and are kept apart here.

What was measured:
[1] = target: Myeloid Cell Leukemia 1 (Mcl-1) (Homo sapiens, UniProt Q07820); test: biochemical; type: binding; details: HTRF Ki (nM)
[2] = test system: MOLP-8 human multiple myeloma cell line; test: MOLP8 Caspase-Glo 3/7 luminescent assay; type: cell-based; details: averaged over all runs on all batches
From the text: (§1) MCL-1 is a regulator of apoptosis and is highly over-expressed in tumor cells that escape cell death. The assay evaluates the cellular potency of small-molecule compounds targeting regulators of the apoptosis pathway, primarily MCL-1, Bfl-1, Bcl-2, and other proteins of the Bcl-2 family. Protein-protein inhibitors disrupting the interaction of anti-apoptotic regulators with BH3-domain proteins initiate apoptosis.
The Caspase-Glo® 3/7 Assay is a luminescent assay that measures caspase-3 and -7 activities in purified enzyme preparations or cultures of adherent or suspension cells. The assay provides a proluminescent caspase-3/7 substrate, which contains the tetrapeptide sequence DEVD. This substrate is cleaved to release aminoluciferin, a substrate of luciferase used in the production of light. Addition of the single Caspase-Glo® 3/7 Reagent in an “add-mix-measure” format results in cell lysis, followed by caspase cleavage of the substrate and generation of a “glow-type” luminescent signal.
This assay uses the MOLP-8 human multiple myeloma cell line, which is sensitive to MCL-1 inhibition.
Cell cultures were maintained between 0.2 and 2.0×10^6 cells/mL. The cells were harvested by collection in 50 mL conical tubes. The cells were then pelleted at 500 g for 5 mins before removing supernatant and resuspension in fresh pre-warmed culture medium. The cells were counted and diluted as needed.
The assay reagent was prepared by transferring the buffer solution to the substrate vial and mixing. The solution may be stored for up to 1 week at 4° C. with negligible loss of signal.
Compounds were delivered in assay-ready plates (Proxiplate) and stored at −20° C.
Assays always include 1 reference compound plate containing reference compounds. The plates were spotted with 40 nL of compounds (0.5% DMSO final in cells; serial dilution; 30 μM highest conc. 1/3 dilution, 10 doses, duplicates). The compounds were used at room temperature and 4 μL of pre-warmed media was added to all wells except column 2 and 23. The negative control was prepared by adding 1% DMSO in media. The positive control was prepared by adding the appropriate positive control compound in final concentration of 60 μM in media. The plate was prepared by adding 4 μL negative control to column 23, 4 μL positive control to column 2 and 4 μL cell suspension to all wells in the plate. The plate with cells was then incubated at 37° C. for 2 hours. The assay signal reagent is the Caspase-Glo solution described above, and 8 μL was added to all wells. The plates were then sealed and measured after 30 minutes.
The activity of a test compound was calculated as percent change in apoptosis induction as follows: […]

MOLP8 cell line = test: MOLP8 CellEvent Caspase-3/7 Green live-cell IncuCyte apoptosis assay; type: cell-based, human; details: MOLP8 cells, averaged values
Protocol: as §1
Activation of the apoptotic pathway was measured using the CellEvent™ Caspase-3/7 Green ReadyProbes™ Reagent (Thermo Fisher C10423, C10723). This assay produces a green fluorescent stain in cells that enter the apoptosis pathway. CellEvent® Caspase-3/7 Green reagent is a four amino acid peptide (DEVD) conjugated to a nucleic acid-binding dye that is non-fluorescent when not bound to DNA. The CellEvent® Caspase-3/7 Green reagent is intrinsically non-fluorescent, as the DEVD peptide inhibits binding of the dye to DNA. Upon activation of caspase-3/7 in apoptotic cells, the DEVD peptide is cleaved and the free dye can bind DNA, generating a bright green fluorescence. The activation of Caspase-3 and Caspase-7 is downstream of inhibition of MCL-1 or other apoptosis inhibiting proteins in cell lines that are dependent on them.
The live-cell readout on the IncuCyte permits tracking over time of the Caspase activation. […] The IncuCyte readout also allows one to normalize for cell number, as the suspension cells are hard to distribute evenly.
Signals were measured every 2 h for a duration of 22 h. The ratio of the Caspase mask to the Confluence mask, per image, as raw data, was calculated and the kinetic trace for every well was exported to Genedata Screener for analysis.
In Genedata Screener values for 6 h, 12 h, and 22 h from the kinetic traces were extracted. The values were normalized against negative controls (untreated cells). A standard dose-response analysis was performed on the normalized data.
The following data was reported at each of the following three aforementioned time points: (a) The dose-response curve, (b) The qAC50 and qAC50 Mode, and (c) Max Activity.
Cells were maintained in culture medium containing 10% Heat Inactivated (HI) FBS, 2 mM L-Glutamine and 50 μg/mL Gentamycin phenol red free RPMI-1640. Cells were split at 0.4 million/mL twice a week.
On Day 1, plates containing individual wells with test compounds at 10 mM concentration, 150 nL per well. The final concentrations range from […] compound (and no compound control) and compounds were thawed at room temperature for 1 hour. 25 μl of prewarmed medium was added into each well by multidrop (column 1, 3-22, 24), followed by addition of DMSO control (0.6% DMSO) in column 2. The plate was sealed using Breathe-Easy® sealing membrane and shaken for 30 min at room temperature to dissolve the test compound(s) in medium. The plate was then kept in the incubator for 1 hour at 37° C., 5% CO2.
MOLP8 cells in medium at […] (20000/50 μl final in assay) were prepared with CellEvent™ Caspase-3/7 Green Detection Reagent at 4 μM (2 μM final in assay). Once prepared, the cells were added to the test compound plate in an amount of 20000 and the plate was immediately placed in the IncuCyte and imaging started using following settings: 10× objective, 2 s exposure time in green channel, interval of 2 h, acquisition stopped after 22 h.
For analysis in IncuCyte, a Basic Analysis protocol was defined to calculate the “confluence” and “caspase” areas from the “Phase” and “green” images, respectively, as follows: (a) Confluence: Segmentation Adjustment 1, Hole Fill 0, Adjust Size −2, No filters (b) Caspase: Top-Hat segmentation, Radius 10, Threshold 0.3 GCU, Edge Split On with sensitivity 0, Hole Fill 0, Adjust Size 1, and filter on a minimum Area of 20 μm^2. The analyzer is trained on a sufficient number of positive and negative control wells, as well as compound treated wells, verifying that the “confluence” layer detects both live and dead (condensed) cells. […]

[3] = MOLP8 cells, 2 hours incubation, read-out: MOLP8 Caspase-Glo AC50
[4] = read-out: MOLP8 Caspase 3/7 AC50 at 6 h, 6 h
[5] = read-out: MOLP8 Caspase 3/7 AC50 at 12 h, 12 h
[6] = read-out: MOLP8 Caspase 3/7 AC50 at 22 h, 22 h
[7] = read-out: MOLP8 Caspase-Glo AC50, MOLP8 cells, 2 hours incubation
[8] = Homo sapiens, MOLP-8, 2 h, read-out: MOLP8 Caspase-Glo AC50 (nM), MOLP8 cells, 2 hours incubation

Myeloid Cell Leukemia 1 (Mcl-1), sequence (Q07820 whole entry): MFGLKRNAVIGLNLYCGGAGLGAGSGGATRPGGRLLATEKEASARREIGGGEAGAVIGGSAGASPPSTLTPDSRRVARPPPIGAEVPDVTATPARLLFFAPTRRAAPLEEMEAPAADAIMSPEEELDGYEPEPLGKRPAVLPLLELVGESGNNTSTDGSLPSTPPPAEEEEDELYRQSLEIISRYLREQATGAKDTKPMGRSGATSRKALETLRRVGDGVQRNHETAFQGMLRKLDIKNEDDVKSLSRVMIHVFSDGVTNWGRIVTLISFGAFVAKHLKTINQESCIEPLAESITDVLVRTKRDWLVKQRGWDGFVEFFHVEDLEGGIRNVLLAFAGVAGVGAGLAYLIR

| SMILES | Ki [1] | AC50 [2, 3] [nM] | AC50 (MOLP8 cell line; [4]) [nM] | AC50 (MOLP8 cell line; [5]) [nM] | AC50 (MOLP8 cell line; [6]) [nM] | AC50 [2, 7] [nM] | AC50 [2, 8] [nM] | AC50 ([2]; Homo sapiens, MOLP-8, 2 h, MOLP8 cells, 2 hours incubation, read-out: MOLP8 Caspase-Glo AC50) [nM] |
| --- | --- | --- | --- | --- | --- | --- | --- | --- |
| Cc1nn(CCN(C)C)c2c1-c1c(Cl)ccc3c(c(C(=O)O)n(C)c13)CCCOc1cc(cc3ccccc13)SCc1cc(nn1C)CN(C)C2 (single isomer, unassigned) [Compound 19] | 0.08 nM and 0.18 nM | 233 | 1090 | 990 | 990 | – | – | – |
| Cc1c2c(nn1CCN(C)C)CN(C)Cc1cc(n(C)n1)CSc1cc(c3ccccc3c1)OCCCc1c(C(=O)O)n(C)c3c-2c(Cl)ccc13 (single isomer, unassigned) [Compound 20] | 0.06 nM and 0.03 nM | 83 | 290 | 320 | 330 | – | – | – |
| Cc1c2c(nn1CCN(C)C)CN(C)Cc1cc(n(C)n1)CSc1cc(c3ccccc3c1)OCCCc1c(C(=O)O)n(C)c3c-2c(Cl)ccc13 (single isomer, unassigned) [Compound 21] | 0.49 nM and 0.31 nM | 1600 | 3160 | 2960 | 3090 | – | – | – |
| Cc1nn(CCN(C)C)c2c1-c1c(Cl)ccc3c(c(C(=O)O)n(C)c13)CCCOc1cc(cc3ccccc13)SCc1cc(nn1C)CN(C)C2 (single isomer, unassigned) [Compound 22] | 3.73 nM and 3.07 nM | 14500 | ~17400 | ~17000 | ~17000 | – | – | – |
| Cc1[nH]nc2c1-c1c(Cl)ccc3c(c(C(=O)O)n(C)c13)CCCOc1cc(cc3ccccc13)SCc1cc(nn1C)CN(C)C2 (single isomer, unassigned) [Compound 23] | 0.07 nM and 0.03 nM | – | 450 | 450 | 420 | 215 | – | – |
| Cc1[nH]nc2c1-c1c(Cl)ccc3c(c(C(=O)O)n(C)c13)CCCOc1cc(cc3ccccc13)SCc1cc(nn1C)CN(C)C2 (single isomer, unassigned) [Compound 24] | 1.2 nM and 1.87 nM | – | ~10500 | 12000 | 11500 | 8160 | – | – |
| COCCn1nc(C)c2c1CN(C)Cc1cc(n(C)n1)CSc1cc(c3ccccc3c1)OCCCc1c(C(=O)O)n(C)c3c-2c(Cl)ccc13 (single isomer, unassigned) [Compound 26] | 4.14 nM and 5.54 nM | – | 8290 | 7960 | 8610 | – | 4330 | – |
| COCCn1nc2c(c1C)-c1c(Cl)ccc3c(c(C(=O)O)n(C)c13)CCCOc1cc(cc3ccccc13)SCc1cc(nn1C)CN(C)C2 (single isomer, unassigned) [Compound 27] | 0.03 nM and 0.06 nM | – | 100 | 100 | 90 | 36 | – | – |
| COCCn1nc2c(c1C)-c1c(Cl)ccc3c(c(C(=O)O)n(C)c13)CCCOc1cc(cc3ccccc13)SCc1cc(nn1C)CN(C)C2 (single isomer, unassigned) [Compound 28] | 9.8 nM and 9.39 nM | – | ~20700 | 13400 | 11400 | 5400 | – | – |
| COCCOCCn1nc(C)c2c1CN(C)Cc1cc(n(C)n1)CSc1cc(c3ccccc3c1)OCCCc1c(C(=O)O)n(C)c3c-2c(Cl)ccc13 (single isomer, unassigned) [Compound 29] | 0.06 nM and 0.03 nM | 23 | 60 | 62 | 60 | – | – | – |
| COCCOCCn1nc(C)c2c1CN(C)Cc1cc(n(C)n1)CSc1cc(c3ccccc3c1)OCCCc1c(C(=O)O)n(C)c3c-2c(Cl)ccc13 (single isomer, unassigned) [Compound 30] | 0.81 nM and 0.75 nM | 971 | 2010 | 2140 | 2230 | – | – | – |
| COCCOCCn1nc2c(c1C)-c1c(Cl)ccc3c(c(C(=O)O)n(C)c13)CCCOc1cc(cc3ccccc13)SCc1cc(nn1C)CN(C)C2 (single isomer, unassigned) [Compound 31] | 0.04 nM and 0.03 nM | 39 | 160 | 160 | 160 | – | – | – |
| COCCOCCn1nc2c(c1C)-c1c(Cl)ccc3c(c(C(=O)O)n(C)c13)CCCOc1cc(cc3ccccc13)SCc1cc(nn1C)CN(C)C2 (single isomer, unassigned) [Compound 32] | 7.44 nM and 8.51 nM | 12100 | ~27500 | ~21500 | ~20000 | – | – | – |
| Cc1nn(CCCN2CCOCC2)c2c1-c1c(Cl)ccc3c(c(C(=O)O)n(C)c13)CCCOc1cc(cc3ccccc13)SCc1cc(nn1C)CN(C)C2 (single isomer, unassigned) [Compound 33] | 0.03 nM | 94 | 300 | 240 | 340 | – | – | – |
| Cc1nn(CCCN2CCOCC2)c2c1-c1c(Cl)ccc3c(c(C(=O)O)n(C)c13)CCCOc1cc(cc3ccccc13)SCc1cc(nn1C)CN(C)C2 (single isomer, unassigned) [Compound 34] | 0.47 nM and 0.68 nM | 1000 | 2250 | 2540 | 2320 | – | – | – |
| Cc1c2c(nn1CCCN1CCOCC1)CN(C)Cc1cc(n(C)n1)CSc1cc(c3ccccc3c1)OCCCc1c(C(=O)O)n(C)c3c-2c(Cl)ccc13 (single isomer, unassigned) [Compound 36] | 1.34 nM and 2.06 nM | – | 6140 | 5770 | 4290 | – | – | 2820 |
| Cc1c2c(nn1CCO)CN(C)Cc1cc(n(C)n1)CSc1cc(c3ccccc3c1)OCCCc1c(C(=O)O)n(C)c3c-2c(Cl)ccc13 (single isomer, unassigned) [Compound 38] | 0.7 nM and 0.48 nM | – | 5490 | 5390 | 5160 | – | 3050 | – |
